ChEMBL document CHEMBL2169741, “Analysis of the discriminative inhibition of mammalian digestive lipases by 3-phenyl substituted 1,3,4-oxadiazol-2(3H)-ones” (Eur J Med Chem, 2012)
The source made the active and inactive calls. The calls are words filed in the database; no cut-off is given here.

Columns and labels:
[1] = target: T1, Gastric triacylglycerol lipase (Canis lupus familiaris) (UniProt P80035); test: Inhibition of recombinant DGL expressed in transgenic maize at 20 molar excess after 30 mins in presence of NaTDC
T1 sequence (whole entry): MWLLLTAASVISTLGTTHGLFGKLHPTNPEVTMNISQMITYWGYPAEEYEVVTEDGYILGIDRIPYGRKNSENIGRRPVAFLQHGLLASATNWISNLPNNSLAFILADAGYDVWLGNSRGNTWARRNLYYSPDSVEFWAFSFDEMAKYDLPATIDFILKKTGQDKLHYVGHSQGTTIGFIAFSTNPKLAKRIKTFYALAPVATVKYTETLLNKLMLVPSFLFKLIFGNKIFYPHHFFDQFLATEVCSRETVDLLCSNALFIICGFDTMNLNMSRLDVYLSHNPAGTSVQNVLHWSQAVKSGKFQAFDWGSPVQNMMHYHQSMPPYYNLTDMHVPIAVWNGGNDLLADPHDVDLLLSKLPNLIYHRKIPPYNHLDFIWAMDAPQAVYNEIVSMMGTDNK

[2] = target: T2, Pancreatic lipase-related protein 2 (Homo sapiens) (UniProt P54317); test: Inhibition of recombinant HPLRP2 expressed in Pichia pastoris at 2 molar excess after 30 mins in presence of NaTDC
T2 sequence (whole entry): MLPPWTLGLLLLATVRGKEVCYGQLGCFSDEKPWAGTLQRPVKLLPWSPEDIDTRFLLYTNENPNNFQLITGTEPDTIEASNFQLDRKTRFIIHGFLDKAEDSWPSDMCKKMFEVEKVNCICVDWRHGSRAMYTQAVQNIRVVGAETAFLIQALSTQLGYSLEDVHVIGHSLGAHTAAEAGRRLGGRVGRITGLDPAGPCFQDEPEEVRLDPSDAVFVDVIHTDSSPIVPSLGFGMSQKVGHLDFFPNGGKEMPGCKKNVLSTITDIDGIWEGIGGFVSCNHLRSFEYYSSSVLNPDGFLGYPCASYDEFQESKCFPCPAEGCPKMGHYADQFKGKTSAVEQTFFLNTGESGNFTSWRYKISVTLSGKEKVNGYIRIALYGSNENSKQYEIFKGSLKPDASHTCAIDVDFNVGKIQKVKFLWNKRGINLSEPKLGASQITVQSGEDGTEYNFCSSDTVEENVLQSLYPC

[3] = target: T1, Gastric triacylglycerol lipase (Canis lupus familiaris); test: Inhibition of recombinant DGL expressed in transgenic maize assessed as half inactivation time at 20 molar excess in presence of NaTDC
[4] = target: T3, Pancreatic triacylglycerol lipase (Sus scrofa) (UniProt P00591); test: Inhibition of PPL at 100 molar excess after 30 mins in presence of NaTDC
T3 sequence (whole entry): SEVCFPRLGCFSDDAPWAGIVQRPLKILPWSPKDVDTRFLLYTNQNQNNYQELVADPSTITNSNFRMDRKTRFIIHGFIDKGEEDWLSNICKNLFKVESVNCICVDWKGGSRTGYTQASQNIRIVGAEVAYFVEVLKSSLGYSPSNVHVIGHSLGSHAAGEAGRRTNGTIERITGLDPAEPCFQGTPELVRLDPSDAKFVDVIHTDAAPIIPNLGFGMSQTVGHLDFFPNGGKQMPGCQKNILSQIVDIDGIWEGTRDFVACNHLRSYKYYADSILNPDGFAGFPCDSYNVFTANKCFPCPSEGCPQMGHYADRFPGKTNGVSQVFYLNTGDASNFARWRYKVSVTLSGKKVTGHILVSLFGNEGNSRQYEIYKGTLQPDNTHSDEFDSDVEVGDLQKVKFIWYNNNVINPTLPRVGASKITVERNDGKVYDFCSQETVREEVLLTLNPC

[5] = target: T4, Pancreatic lipase-related protein 2 (Cavia porcellus) (UniProt P81139); test: Inhibition of recombinant GPLRP2 expressed in Aspergillus oryzae at 20 molar excess after 30 mins in presence of NaTDC
T4 sequence (whole entry): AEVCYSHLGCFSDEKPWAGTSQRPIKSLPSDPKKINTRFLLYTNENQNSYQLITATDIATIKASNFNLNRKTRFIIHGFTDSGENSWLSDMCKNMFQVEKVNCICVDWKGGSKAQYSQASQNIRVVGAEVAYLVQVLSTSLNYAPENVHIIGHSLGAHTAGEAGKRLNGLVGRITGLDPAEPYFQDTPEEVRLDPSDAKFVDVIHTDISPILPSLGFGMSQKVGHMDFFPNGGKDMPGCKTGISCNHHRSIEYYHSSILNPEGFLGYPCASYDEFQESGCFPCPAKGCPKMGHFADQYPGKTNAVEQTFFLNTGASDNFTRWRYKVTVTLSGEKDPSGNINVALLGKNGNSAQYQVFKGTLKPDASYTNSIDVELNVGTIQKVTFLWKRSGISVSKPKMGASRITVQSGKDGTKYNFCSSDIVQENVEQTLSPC

[6] = target: T2, Pancreatic lipase-related protein 2 (Homo sapiens); test: Inhibition of recombinant HPLRP2 expressed in Pichia pastoris after 30 mins in presence of NaTDC
[7] = target: T2, Pancreatic lipase-related protein 2 (Homo sapiens); test: Inhibition of recombinant HPLRP2 expressed in Pichia pastoris assessed as half inactivation time at 5 molar excess in presence of NaTDC
[8] = target: T3, Pancreatic triacylglycerol lipase (Sus scrofa); test: Inhibition of PPL at 400 molar excess after 30 mins in presence of NaTDC
[9] = target: T5, Bile salt-activated lipase (Homo sapiens) (UniProt P19835); test: Inhibition of human pancreatic CEH at 20 molar excess after 30 mins
T5 sequence (whole entry): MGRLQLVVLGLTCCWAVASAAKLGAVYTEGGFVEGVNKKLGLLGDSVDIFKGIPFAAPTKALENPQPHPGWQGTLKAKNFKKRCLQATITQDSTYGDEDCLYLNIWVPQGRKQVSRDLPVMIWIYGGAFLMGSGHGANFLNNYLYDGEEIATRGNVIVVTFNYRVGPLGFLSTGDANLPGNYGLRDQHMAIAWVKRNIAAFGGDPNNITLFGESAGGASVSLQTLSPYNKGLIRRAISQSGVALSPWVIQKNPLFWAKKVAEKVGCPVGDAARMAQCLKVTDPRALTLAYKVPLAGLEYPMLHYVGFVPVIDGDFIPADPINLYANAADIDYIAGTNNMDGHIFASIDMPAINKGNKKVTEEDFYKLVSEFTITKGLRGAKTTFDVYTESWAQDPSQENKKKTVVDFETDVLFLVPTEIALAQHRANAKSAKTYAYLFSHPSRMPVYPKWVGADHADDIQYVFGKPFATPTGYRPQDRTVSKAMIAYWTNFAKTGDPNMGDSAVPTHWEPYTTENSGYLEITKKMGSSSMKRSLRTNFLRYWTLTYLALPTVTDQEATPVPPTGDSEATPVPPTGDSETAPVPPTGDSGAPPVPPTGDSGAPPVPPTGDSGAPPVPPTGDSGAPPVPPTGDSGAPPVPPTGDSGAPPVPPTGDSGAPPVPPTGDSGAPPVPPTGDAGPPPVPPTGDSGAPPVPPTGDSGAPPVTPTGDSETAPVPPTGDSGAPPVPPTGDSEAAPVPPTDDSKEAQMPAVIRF

[10] = target: T3, Pancreatic triacylglycerol lipase (Sus scrofa); test: Inhibition of PPL after 30 mins in presence of NaTDC
[11] = target: T6, Pancreatic triacylglycerol lipase (Homo sapiens) (UniProt P16233); test: Inhibition of recombinant HPL expressed in Pichia pastoris at 100 molar excess after 30 mins in presence of NaTDC
T6 sequence (whole entry): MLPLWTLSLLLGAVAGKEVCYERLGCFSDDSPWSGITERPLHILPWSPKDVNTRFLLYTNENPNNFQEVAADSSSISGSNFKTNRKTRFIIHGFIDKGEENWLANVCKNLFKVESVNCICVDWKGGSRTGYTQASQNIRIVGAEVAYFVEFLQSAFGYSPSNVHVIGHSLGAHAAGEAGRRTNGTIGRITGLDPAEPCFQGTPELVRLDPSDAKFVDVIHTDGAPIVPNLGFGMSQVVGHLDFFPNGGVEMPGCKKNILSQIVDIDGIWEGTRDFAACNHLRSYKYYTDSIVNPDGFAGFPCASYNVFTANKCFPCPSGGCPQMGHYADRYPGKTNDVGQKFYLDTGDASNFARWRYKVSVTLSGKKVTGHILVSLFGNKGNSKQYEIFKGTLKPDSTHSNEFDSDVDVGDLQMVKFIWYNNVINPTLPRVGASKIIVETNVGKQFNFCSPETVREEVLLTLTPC

[12] = target: T4, Pancreatic lipase-related protein 2 (Cavia porcellus); test: Inhibition of recombinant GPLRP2 expressed in Aspergillus oryzae assessed as half inactivation time at 2 molar excess in presence of NaTDC
[13] = target: T5, Bile salt-activated lipase (Homo sapiens); test: Inhibition of human pancreatic CEH after 30 mins
[14] = target: T1, Gastric triacylglycerol lipase (Canis lupus familiaris); test: Inhibition of recombinant DGL expressed in transgenic maize after 30 mins in presence of NaTDC
[15] = target: T4, Pancreatic lipase-related protein 2 (Cavia porcellus); test: Inhibition of recombinant GPLRP2 expressed in Aspergillus oryzae after 30 mins in presence of NaTDC
[16] = target: T5, Bile salt-activated lipase (Homo sapiens); test: Inhibition of human pancreatic CEH assessed as half inactivation time at 4 molar excess
[17] = target: T1, Gastric triacylglycerol lipase (Canis lupus familiaris); test: Inhibition of recombinant DGL expressed in transgenic maize at 2 molar excess after 30 mins in presence of NaTDC
Sus scrofa = organism: Sus scrofa; test: Inhibition of porcine Pancrelipase at 400 molar excess after 30 mins
[18] = target: T5, Bile salt-activated lipase (Homo sapiens); test: Inhibition of human pancreatic CEH at 2 molar excess after 30 mins
[19] = target: T6, Pancreatic triacylglycerol lipase (Homo sapiens); test: Inhibition of recombinant HPL expressed in Pichia pastoris after 30 mins in presence of NaTDC
[20] = target: T6, Pancreatic triacylglycerol lipase (Homo sapiens); test: Inhibition of recombinant HPL expressed in Pichia pastoris assessed as half inactivation time at 100 molar excess in presence of NaTDC
[21] = target: T2, Pancreatic lipase-related protein 2 (Homo sapiens); test: Inhibition of recombinant HPLRP2 expressed in Pichia pastoris at 20 molar excess after 30 mins in presence of NaTDC
[22] = target: T6, Pancreatic triacylglycerol lipase (Homo sapiens); test: Inhibition of recombinant HPL expressed in Pichia pastoris at 400 molar excess after 30 mins in presence of NaTDC
[23] = target: T3, Pancreatic triacylglycerol lipase (Sus scrofa); test: Inhibition of PPL assessed as half inactivation time at 100 molar excess in presence of NaTDC
[24] = target: T4, Pancreatic lipase-related protein 2 (Cavia porcellus); test: Inhibition of recombinant GPLRP2 expressed in Aspergillus oryzae at 2 molar excess after 30 mins in presence of NaTDC
[25] = target: T1, Gastric triacylglycerol lipase (Canis lupus familiaris); test: Inhibition of recombinant DGL expressed in transgenic maize assessed as hydrolysis of trybutyrin emulsion at 10 to 40 molar excess after 30 mins in presence of NaTDC
[26] = target: T4, Pancreatic lipase-related protein 2 (Cavia porcellus); test: Inhibition of recombinant GPLRP2 expressed in Aspergillus oryzae assessed as residual activity at 40 molar excess after 30 mins by mass spectrophotometric analysis in presence of NaTDC
[27] = target: T1, Gastric triacylglycerol lipase (Canis lupus familiaris); test: Inhibition of recombinant DGL expressed in transgenic maize assessed as residual activity at 40 molar excess after 30 mins by mass spectrophotometric analysis in presence of NaTDC
[28] = target: T5, Bile salt-activated lipase (Homo sapiens); test: Inhibition of human pancreatic CEH assessed as residual activity at 40 molar excess after 30 mins by mass spectrophotometric analysis
[29] = target: T1, Gastric triacylglycerol lipase (Canis lupus familiaris); test: Inhibition of recombinant DGL expressed in transgenic maize assessed as hydrolysis of trybutyrin emulsion at 10 to 40 molar excess after 30 mins in absence of NaTDC
[30] = target: T2, Pancreatic lipase-related protein 2 (Homo sapiens); test: Inhibition of recombinant HPLRP2 expressed in Pichia pastoris assessed as residual activity at 40 molar excess after 30 mins by mass spectrophotometric analysis in presence of NaTDC

Compound	inhibition [1]	inhibition [2]	T1/2 [3]	inhibition [4]	inhibition [5]	XI50 [6]	T1/2 [7]	inhibition [8]	inhibition [9]	XI50 [10]	inhibition [11]	T1/2 [12]	XI50 [13]	T1/2 [16]	inhibition [17]	inhibition (Sus scrofa)	inhibition [18]	inhibition [21]	inhibition [22]	T1/2 [23]	also measured
COc1nn(-c2ccccc2)c(=O)o1	6.6%	49.9%	> 60 min	10.7%	86%	2.27 molar excess	14.6 min	35.8%	81.3%	> 400 molar excess	inactive	598 s	0.77 molar excess	60 s	1.4%	34.1%	71.6%	92.7%	inactive	> 60 min	XI50 [14]: > 40 molar excess; XI50 [15]: 0.74 molar excess; XI50 [19]: inactive; inhibition [20]: inactive; inhibition [24]: 77.6%
CCCCCCCCCCC[C@@H](C[C@@H]1OC(=O)[C@H]1CCCCCC)OC(=O)[C@H](CC(C)C)NC=O	56.3%	83.6%	0.59 min	85.5%	87.3%	0.77 molar excess	0.55 min	90.9%	83.6%	2.76 molar excess	77.2%	24 s	0.78 molar excess	31.2 s	51.5%	93.1%	80.1%	86.3%	85%	1.66 min	inhibition [25]: 60%; T1/2 [20]: 0.0273 h; inhibition [24]: 82.7%
COc1nn(-c2cccc(Oc3ccccc3)c2)c(=O)o1	81.9%	63.7%	1.88 min	85.1%	90.4%	0.62 molar excess	0.78 min	87.7%	84.7%	26.5 molar excess	26.3%	27.6 s	1.48 molar excess	54 s	10.9%	89.7%	54.5%	81.2%	42.7%	1.69 min	inhibition [26]: Active; inhibition [27]: Active; XI50 [14]: 8.33 molar excess; XI50 [15]: 0.77 molar excess; inhibition [25]: Active; XI50 [19]: > 400 molar excess; inhibition [28]: Active; T1/2 [20]: > 2 h; inhibition [29]: 65%; inhibition [30]: Active; inhibition [24]: 80.1%
COc1nn(-c2ccc(Oc3ccccc3)cc2)c(=O)o1	92.7%	66%	9.31 min	72.9%	23.6%	1.04 molar excess	2.06 min	87.1%	78.6%	57.6 molar excess	inactive	> 3600 s	0.93 molar excess	85.8 s	12.4%	90.6%	77.1%	88.8%	20%	1.84 min	XI50 [14]: 7.12 molar excess; XI50 [15]: > 40 molar excess; inhibition [25]: Active; XI50 [19]: > 400 molar excess; T1/2 [20]: > 2 h; inhibition [29]: 65%; inhibition [24]: 13.3%
